Patent publication US20210116454A1, “METHODS FOR TREATING A HEMATOLOGICAL CANCER AND THE USE OF COMPANION BIOMARKERS FOR 2-(2,6-DIOXOPIPERIDIN-3-YL)-4-((2-FLUORO-4-((3-MORPHOLINOAZETIDIN-1-YL)METHYL)BENZYL)AMINO)ISOINDOLINE-1,3-DIONE” (CELGENE CORPORATION, priority 2019, published 2021)
Like-named read-outs stand apart in the source and are kept apart here.

What was measured:
Type in all cases: cell-based
[1] = tested on: DB; assay: 5-day viable cell number and apoptosis (7-AAD exclusion/Annexin V flow cytometry)
Description: (§1) The DLBCL panel includes seven cell lines classified as activated B-cell (ABC) subtype, thirteen cell lines classified as the germinal center B-cell (GCB) subtype, and three cell lines classified as primary mediastinal B-cell lymphoma (PMBL). […] The translocation of MYC, BCL6, or BCL2 to an IG locus usually leads to high levels of mRNA and protein due to the active transcription driven by a constitutively active IG promoter. […] Expressions of CRBN protein and known substrates, Ikaros, Aiolos, and ZFP91 were also evaluated (FIG. 1, panels B and C).
(§2) The panel of cell lines were treated with increasing doses of compounds for five days, at which time the number of viable cells was measured and the amount of apoptosis was determined by 7-AAD exclusion and Annexin V staining using flow cytometry.

[2] = tested on: Farage; assay: as above
Description: as §1, §2

[3] = tested on: KARPAS-422; assay: as above
Description: as §1, §2

[4] = tested on: SU-DHL-10; assay: as above
Description: as §1, §2

[5] = tested on: SU-DHL-16; assay: as above
Description: as §1, §2

[6] = tested on: SU-DHL-2; assay: as above
Description: as §1, §2

[7] = tested on: U2940; assay: as above
Description: as §1, §2

[8] = tested on: Oci-Ly10 DoxoR; assay: Viable cells/apoptosis in doxorubicin-resistant and matching parental lines; settings: for IC50: Homo sapiens
Procedure: (§3) The activity of Compound 1 was also evaluated in cell lines with acquired resistance to doxorubicin (Table 4). Doxorubicin-resistant cell lines (DoxoR) were generated by culturing the parental cell lines in vitro with increasing concentrations of doxorubicin for a long period of time (˜9 to 18 months) until they were able to grow in the presence of a relatively high concentration of doxorubicin (1 μM). Matching parental (M-Parent) cells were generated by maintaining the parental cells in culture without treatment for the same amount of time (˜9 to 18 months). The growth-inhibitory effect of doxorubicin on parental cells and the corresponding resistant cells was evaluated by measuring the number of viable cells and extent of apoptosis by 7-AAD exclusion and Annexin V staining using flow cytometry.
(§4) The effects of Compound 1 on the viability of doxorubicin-resistant versus parental cell lines was determined (FIG. 2; Table 5).

[9] = tested on: Oci-Ly10 M-Parental; assay: as above; settings: for IC50: Homo sapiens
Procedure: as §3, §4

[10] = tested on: SU-DHL-4 DoxoR; assay: as above; settings: for IC50: Homo sapiens
Procedure: as §3, §4

[11] = tested on: SU-DHL-4 M-Parental; assay: as above; settings: for IC50: Homo sapiens
Procedure: as §3, §4

[12] = tested on: U2932 DoxoR; assay: as above; settings: for IC50: Homo sapiens
Procedure: as §3, §4

[13] = tested on: U2932 M-Parental; assay: as above; settings: for IC50: Homo sapiens
Procedure: as §3, §4

[14] = tested on: WSU-DLCL2 DoxoR; assay: as above; settings: for IC50: Homo sapiens
Procedure: as §3, §4

[15] = tested on: WSU-DLCL2 M-Parental; assay: as above; settings: for IC50: Homo sapiens
Procedure: as §3, §4

[16] = tested on: DLBCL cell lines; assay: Panel of twenty three DLBCL cell lines, 5-day viable cells and apoptosis
Procedure: Compound 1 activity was evaluated in a panel of twenty three DLBCL cell lines. The DLBCL panel includes seven cell lines classified as activated B-cell (ABC) subtype, thirteen cell lines classified as the germinal center B-cell (GCB) subtype, and three cell lines classified as primary mediastinal B-cell lymphoma (PMBL). […] Thus, eleven cell lines have a t(8;14)(q24;q32) and/or t(14;18)(q32;q21.3), corresponding to MYC and BCL2 gene rearrangements into an immunoglobulin (IG) heavy chain locus as well as additional rearrangements affecting BCL6 (Table 1). The translocation of MYC, BCL6, or BCL2 to an IG locus usually leads to high levels of mRNA and protein due to the active transcription driven by a constitutively active IG promoter. Therefore, the protein levels of these genes were monitored by Western blots, confirming the overexpression of BCL2, MYC, and/or BCL6 in all the cell lines evaluated (FIG. 1, panel A). Expressions of CRBN protein and known substrates, Ikaros, Aiolos, and ZFP91 were also evaluated (FIG. 1, panels B and C).
as §2, with “cytometry. […] Overall, the sensitivity to Compound 1 was independent of cell of origin (COO), since ABC, GCB, and PMBL subtypes were sensitive to Compound 1 (Table 2).” for “cytometry.”

[17] = Farage cells (Table 3), read-out: IC50
[18] = Homo sapiens, 120 h, KARPAS-422 cells, 5 days
[19] = Homo sapiens, KARPAS-422 cells (Table 3), read-out: IC50
[20] = Homo sapiens, SU-DHL10, 120 h, SU-DHL-10 cells, 5 days
[21] = Homo sapiens, SU-DHL10, SU-DHL-10 cells (Table 3), read-out: IC50
[22] = Homo sapiens, 120 h, SU-DHL-16 cells, 5 days
[23] = Homo sapiens, SU-DHL-16 cells (Table 3), read-out: IC50
[24] = Homo sapiens, 120 h, SU-DHL-2 cells, 5 days
[25] = Homo sapiens, SU-DHL-2 cells (Table 3), read-out: IC50
[26] = Homo sapiens, U-2940, 120 h, U2940 cells, 5 days
[27] = WSUDLCL2, 120 h, 5 days, read-out: IC50
[28] = WSUDLCL2, read-out: Doxorubicin IC50

## O=C1CC[C@H](N2C(=O)c3cccc(NCc4ccc(CN5CC(N6CCOCC6)C5)cc4F)c3C2=O)C(=O)N1 [Compound 1, (S)-2-(2,6-dioxopiperidin-3-yl)-4-((2-fluoro-4-((3-morpholinoazetidin-1-yl)methyl)benzyl)amino)isoindoline-1,3-dione]
[1]; DB cells, 5 days
  % Viable Cells AUC: 1173
  % Viable Cells Emax: 107.1%
  % Viable Cells Sensitivity: Limited
  Apoptosis AUC: 0
  Apoptosis Sensitivity: Limited
[2]; 120 h, Farage cells, 5 days
  EC50: 73.6 nM
  Emax: 54.2%
[2]; 120 h, Farage cells, 5 days, read-out: % Viable Cells IC50
  IC50: 3.7 nM
[2]; [17]
  IC50: 59000 nM
[2]; Farage cells, 5 days
  % Viable Cells AUC: 59.29
  % Viable Cells Emax: 1.676%
  % Viable Cells Sensitivity: High (highly sensitive to Compound 1 with less than 6% viable cells remaining (Emax) after treatment)
  Apoptosis AUC: 503.6
  Apoptosis Sensitivity: High
[3]; [18]
  EC50: 32.5 nM
  Emax: 70.5%
[3]; Homo sapiens, 120 h, KARPAS-422 cells, 5 days, read-out: % Viable Cells IC50
  IC50: 5.4 nM
[3]; [19]
  IC50: 45000 nM
[3]; KARPAS-422 cells, 5 days
  % Viable Cells AUC: 45.21
  % Viable Cells Emax: 1.584%
  % Viable Cells Sensitivity: High (highly sensitive to Compound 1 with less than 6% viable cells remaining (Emax) after treatment)
  Apoptosis AUC: 682.2
  Apoptosis Sensitivity: High
[4]; [20]
  EC50: 16.3 nM
  Emax: 81.9%
[4]; Homo sapiens, SU-DHL10, 120 h, SU-DHL-10 cells, 5 days, read-out: % Viable Cells IC50
  IC50: 10 nM
[4]; [21]
  IC50: 3400 nM
[4]; SU-DHL-10 cells, 5 days
  % Viable Cells AUC: 3.371
  % Viable Cells Emax: 2.477%
  % Viable Cells Sensitivity: High (highly sensitive to Compound 1 with less than 6% viable cells remaining (Emax) after treatment)
  Apoptosis AUC: 815.3
  Apoptosis Sensitivity: High
[5]; [22]
  EC50: 262 nM
  Emax: 18.2%
[5]; Homo sapiens, 120 h, SU-DHL-16 cells, 5 days, read-out: % Viable Cells IC50
  IC50: 120 nM
[5]; [23]
  IC50: 360000 nM
[5]; SU-DHL-16 cells, 5 days
  % Viable Cells AUC: 359.7
  % Viable Cells Emax: 30.33%
  % Viable Cells Sensitivity: Intermediate (intermediate sensitivity with 15% to 55% cell viability)
  Apoptosis AUC: 159.1
  Apoptosis Sensitivity: Intermediate
[6]; [24]
  EC50: 7.78 nM
  Emax: 75.2%
[6]; Homo sapiens, 120 h, SU-DHL-2 cells, 5 days, read-out: % Viable Cells IC50
  IC50: 1.3 nM
[6]; [25]
  IC50: 7000 nM
[6]; SU-DHL-2 cells, 5 days
  % Viable Cells AUC: 6.871
  % Viable Cells Emax: 1.264%
  % Viable Cells Sensitivity: High (highly sensitive to Compound 1 with less than 6% viable cells remaining (Emax) after treatment)
  Apoptosis AUC: 745
  Apoptosis Sensitivity: High
[7]; [26]
  EC50: 67.9 nM
  Emax: 29%
[7]; Homo sapiens, U-2940, 120 h, U2940 cells, 5 days, read-out: % Viable Cells IC50
  IC50: 35 nM
[7]; U2940 cells, 5 days
  % Viable Cells AUC: 289.1
  % Viable Cells Emax: 29.24%
  % Viable Cells Sensitivity: Intermediate (intermediate sensitivity with 15% to 55% cell viability)
  Apoptosis AUC: 267.4
  Apoptosis Sensitivity: Intermediate
[8]; OCI-Ly10, 120 h, Oci-Ly 10 DoxoR, 5 days, read-out: IC50
  IC50: 300 nM
[8]; OCI-Ly10 doxorubicin-resistant vs parental
  greater sensitivity of resistant cells compared to parental cells: approximately 20 fold
[8]; Oci-Ly 10 DoxoR, relative to DMSO
  Emax (% viable cells remaining): 22%
[9]; OCI-Ly10, 120 h, Oci-Ly 10 M-Parental, 5 days, read-out: IC50
  IC50: 6000 nM
[9]; Oci-Ly 10 M-Parental, relative to DMSO
  Emax (% viable cells remaining): 47%
[10]; 120 h, SU-DHL-4 DoxoR, 5 days, read-out: IC50
  IC50: 100 nM
[10]; SU-DHL-4 DoxoR, relative to DMSO
  Emax (% viable cells remaining): 8%
[10]; SU-DHL-4 doxorubicin-resistant vs parental
  greater sensitivity in the doxorubicin-resistant cell line: > 100 fold
[11]; 120 h, 5 days, read-out: IC50
  IC50: > 10000 nM
[11]; relative to DMSO
  Emax (% viable cells remaining): 74%
[12]; 120 h, U2932 DoxoR, 5 days, read-out: IC50
  IC50: 1500 nM
[12]; U2932 DoxoR, relative to DMSO
  Emax (% viable cells remaining): 31%
[12]; U2932 doxorubicin-resistant vs M-parental
  lower sensitivity in doxorubicin-resistant cells: 20 fold
[13]; 120 h, 5 days, read-out: IC50
  IC50: 60 nM
[13]; relative to DMSO
  Emax (% viable cells remaining): 19%
[14]; [27]
  IC50: 100 nM
[14]; relative to DMSO
  Emax (% viable cells remaining): 9%
[15]; [27]
  IC50: 10 nM
[15]; relative to DMSO
  Emax (% viable cells remaining): 23%
[16]; 120 h, eighteen of the twenty three lines, five days of treatment
  IC50: 1 to 400 nM
[16]; ten highly sensitive cell lines
  viable cells remaining (Emax): less than 6%

## COc1cccc2c1C(=O)c1c(O)c3c(c(O)c1C2=O)C[C@@](O)(C(=O)CO)C[C@@H]3O[C@H]1C[C@H](N)[C@H](O)[C@H](C)O1 [Doxorubicin, reference compound]
[1]; Homo sapiens, DB cells (Table 3)
  IC50: 3800 nM
[2]; [17]
  IC50: 1200 nM
[3]; [19]
  IC50: 1000 nM
[4]; [21]
  IC50: 600 nM
[5]; [23]
  IC50: 1500 nM
[6]; [25]
  IC50: 1300 nM
[7]; Homo sapiens, U-2940, U2940 cells (Table 3), read-out: IC50
  IC50: 2000 nM
[8]; Oci-Ly10 DoxoR, read-out: Doxorubicin IC50
  IC50: 1400 nM
[9]; Oci-Ly10 M-Parental, read-out: Doxorubicin IC50
  IC50: 20 nM
[10]; SU-DHL-4 DoxoR, read-out: Doxorubicin IC50
  IC50: 1500 nM
[11]; read-out: Doxorubicin IC50
  IC50: 10 nM
[12]; U2932 DoxoR, read-out: Doxorubicin IC50
  IC50: 1080 nM
[13]; read-out: Doxorubicin IC50
  IC50: 10 nM
[14]; [28]
  IC50: 1600 nM
[15]; [28]
  IC50: 10 nM
[16]; panel of twenty three cell lines
  sensitivity of all DLBCL cell lines: strongly sensitive
